Reference: patent US6893642B1, “Algae protein polysaccharide extraction and use thereof” (priority 1999, dated 2005)

Experiments:
mice injected with CTX = assay: T-lymphocyte test; assay type: in vivo; settings: positive control: CTX 10 mg/kg/d then water p.o.
Method: Mice, body weight of 18-22 g, were randomly divided into a blank control group, positive control group, a higher dose group and a lower dose group, with 10 mice per group. The mice in the treated groups were injected with CTX at a dose of 10 mg/kg/d, and then treated with proteoglycan extracts of Spirulina via p.o., at the same dose as above. The mice in the positive control group were treated with CTX at a dose of 10 mg/kg/d, and then treated with water via p.o. the mice in the control group only were treated with water via p.o. after the treatment was continuously taken for 10 days, the treatment was stopped for 2 days. Blood was harvested from eye sockets of the mice for lymphocyte slices. After incubation and dyeing, T-lymphocyte percentage was determined.

[1] = target: T1, PTK picked up from A431 cell containing the EGFR (Homo sapiens, UniProt P00533); assay: Phosphorylation of protein tyrosine kinase (PTK); assay type: biochemical
T1 construct: we used A431 cell containing the EGFR for picking up PTK; endogenous in cells; host or cells: A431 cells
T1 sequence (P00533 25-1210): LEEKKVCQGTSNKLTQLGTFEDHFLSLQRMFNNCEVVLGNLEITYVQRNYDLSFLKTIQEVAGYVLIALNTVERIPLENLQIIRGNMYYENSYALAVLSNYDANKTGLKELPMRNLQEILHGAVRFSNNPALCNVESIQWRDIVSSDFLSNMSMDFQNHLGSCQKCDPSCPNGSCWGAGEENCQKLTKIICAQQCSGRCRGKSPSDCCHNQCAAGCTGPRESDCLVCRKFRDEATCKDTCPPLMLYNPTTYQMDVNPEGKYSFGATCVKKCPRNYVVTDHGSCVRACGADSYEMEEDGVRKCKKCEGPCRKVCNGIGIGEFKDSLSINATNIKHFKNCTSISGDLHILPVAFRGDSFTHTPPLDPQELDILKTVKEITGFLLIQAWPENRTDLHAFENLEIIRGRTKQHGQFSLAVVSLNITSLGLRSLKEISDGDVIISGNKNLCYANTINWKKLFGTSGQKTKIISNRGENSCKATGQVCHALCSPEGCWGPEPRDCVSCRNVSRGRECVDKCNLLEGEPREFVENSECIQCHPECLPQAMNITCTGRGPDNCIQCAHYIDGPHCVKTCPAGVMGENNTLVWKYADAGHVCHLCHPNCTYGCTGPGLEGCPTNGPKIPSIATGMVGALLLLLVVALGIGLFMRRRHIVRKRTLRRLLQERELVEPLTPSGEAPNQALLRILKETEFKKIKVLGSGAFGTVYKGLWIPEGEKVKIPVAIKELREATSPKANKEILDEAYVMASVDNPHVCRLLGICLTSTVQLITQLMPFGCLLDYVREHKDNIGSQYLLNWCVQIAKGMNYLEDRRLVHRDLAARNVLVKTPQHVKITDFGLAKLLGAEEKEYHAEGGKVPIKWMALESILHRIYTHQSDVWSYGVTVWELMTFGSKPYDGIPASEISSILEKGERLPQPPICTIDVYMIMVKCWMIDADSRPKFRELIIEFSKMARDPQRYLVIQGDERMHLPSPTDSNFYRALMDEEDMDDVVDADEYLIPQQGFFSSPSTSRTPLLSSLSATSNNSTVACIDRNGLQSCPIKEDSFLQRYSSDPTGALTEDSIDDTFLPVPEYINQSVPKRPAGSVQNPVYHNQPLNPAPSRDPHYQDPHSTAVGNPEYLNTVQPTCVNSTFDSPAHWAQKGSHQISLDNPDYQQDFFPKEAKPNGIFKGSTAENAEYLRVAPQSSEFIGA
Excerpt: Epidermal growth factor receptor (EGFR), a PTK of receptor type, is a single-stranded trans-membrane glycoprotein consisting of 1186 amino acids, whose molecular weight is […], and exists extensively on the epithelial membrane of the mammals. The C end of the EGFR can recognize and activate many cellular substrates after phosphorylated, then effect on metabolization, growth and carcinogenesis of a cell. […] In our research, we used A431 cell containing the EGFR for picking up PTK, so as to observe the effect of the proteoglycan extract of spirulina on phosphorylation of PTK.

SMILES | T-lymphocyte percentage (mice injected with CTX) [%] | inhibition rate ([1]; Results 1, positive control, 2.5 mM) | inhibition rate ([1]; Results 2, positive control, 0.25 mM) | inhibition rate ([1]; Results 3, positive control, 0.25 mM)
O=P1(N(CCCl)CCCl)NCCCO1 (stereo not shown) [CTX] | 25.6 ± 2.51 | – | – | –
N#CC(C#N)=Cc1cc(O)c(O)c(O)c1 [tyrphostin 25] | – | Positive control: 2.5 mM tyrphostin 25, inhibition rate: 100% | Positive control: 0.25 mM tyrphostin 25, inhibition rate: 86.1% | Positive control: 0.25 mM tyrphostin 25, inhibition rate: 80.5%
